From US20260285857A1, “BICYCLIC AND HETEROCYCLIC AMIDE COMPOUNDS” (priority 2024, published 2026) come the findings set out here.

Each structure is given as a SMILES string.

The test system of the assay is immunoglobulin light chain protein WIL-FL T46L. Nature of the assay: Differential scanning fluorimetry (thermal shift) assay. The assay is classed as binding. The settings on record: Table B; temperature shift [Tm]compound-[Tm]vehicle; recombinant WIL-FL T46L.

In the case of `Cc1cc(N2CC[C@](C)(c3ccccc3)C2)cn2nc(C(=O)N3CCC4(CCCN4c4cccc(C(=O)O)n4)C3)nc12` (stereo partly drawn) [Compound 675, 6-(7-(8-methyl-6-((R)-3-methyl-3-phenylpyrrolidin-1-yl)-[1,2,4]triazolo[1,5-a]pyridine-2-carbonyl)-1,7-diazaspiro[4.4]nonan-1-yl)picolinic acid], the DSF result is given as “***** (>2.5° C.=*****)”.
For the compound `Cc1cc(N2CC[C@](C)(c3ccccc3)C2)cn2nc(C(=O)NC3CCC34CC(O)C4)nc12` (stereo partly drawn) [Compound 676, N-(2-hydroxyspiro[3.3]heptan-7-yl)-8-methyl-6-[(3R)-3-methyl-3-phenyl-pyrrolidin-1-yl]-[1,2,4]triazolo[1,5-a]pyridine-2-carboxamide], the DSF entry is on record as “***** (>2.5° C.=*****)”.
Then `Cc1cc(N2CC[C@](C)(c3ccccc3)C2)cn2nc(C(=O)NC3CCC34CC(OCC(=O)O)C4)nc12` (stereo partly drawn) [Compound 677, 2-[7-[[8-methyl-6-[(3R)-3-methyl-3-phenyl-pyrrolidin-1-yl]-[1,2,4]triazolo[1,5-a]pyridine-2-carbonyl]amino]spiro[3.3]heptan-2-yl]oxyacetic acid], with “***** (>2.5° C.=*****)”; and `Cc1cc(N2CC[C@](C)(c3ccccc3)C2)cn2nc(C(=O)NC3CC4(C3)CN(C(=O)C35CCC(C(=O)O)(CC3)OC5)C4)nc12` [Compound 678, 4-[6-[[8-methyl-6-[(3R)-3-methyl-3-phenyl-pyrrolidin-1-yl]-[1,2,4]triazolo[1,5-a]pyridine-2-carbonyl]amino]-2-azaspiro[3.3]heptane-2-carbonyl]-2-oxabicyclo[2.2.2]octane-1-carboxylic acid], with “***** (>2.5° C.=*****)”.
For the compound `COC(C)(CC(=O)N1CC2(CC(NC(=O)c3nc4c(C)cc(N5CC[C@](C)(c6ccccc6)C5)cn4n3)C2)C1)C(=O)O` (stereo partly shown) [Compound 679], the DSF entry is listed as “***** (>2.5° C.=*****)”.
Consider `Cc1cc(N2CC[C@](C)(c3ccccc3)C2)cn2nc(C(=O)NC3CC4(C3)CN(C(=O)C3CC(C)(C(=O)O)C3)C4)nc12` (stereo partly shown) [Compound 680], for which the DSF entry was “***** (>2.5° C.=*****)”.
With `Cc1cc(N2CC[C@](C)(c3ccccc3)C2)cn2nc(C(=O)NC3CC4(C3)CN(C(=O)C35CC(C(=O)O)(C3)C5)C4)nc12` [Compound 681], the DSF result is “***** (>2.5° C.=*****)”.
As for `Cc1cc(N2CC[C@](C)(c3ccccc3)C2)cn2nc(C(=O)NC3(CO)CCCN(c4cccc(C(=O)O)n4)C3)nc12` (stereo partly drawn) [Compound 682, 6-[3-(hydroxymethyl)-3-[[8-methyl-6-[(3R)-3-methyl-3-phenyl-pyrrolidin-1-yl]-[1,2,4]triazolo[1,5-a]pyridine-2-carbonyl]amino]-1-piperidyl]pyridine-2-carboxylic acid], the DSF result was “***** (>2.5° C.=*****)”.
Consider `Cc1cc(N2CC[C@](C)(c3ccccc3)C2)cn2nc(C(=O)N[C@@H]3CN(c4cccc(C(=O)O)n4)CC3(C)C)nc12` [Compound 683], for which the DSF result was “***** (>2.5° C.=*****)”.
With `Cc1cc(N2CC[C@](C)(c3ccccc3)C2)cn2nc(C(=O)NC3CN(c4cccc(C(=O)O)n4)CC3O)nc12` (stereo partly shown) [Compound 684], the DSF entry is “***** (>2.5° C.=*****)”.
Consider `Cc1cc(N2CC[C@](C)(c3ccccc3)C2)cn2nc(C(=O)NC3C4CCN(c5cccc(C(=O)O)n5)CC43)nc12` (stereo partly drawn) [Compound 685, 6-(7-(8-methyl-6-((R)-3-methyl-3-phenylpyrrolidin-1-yl)-[1,2,4]triazolo[1,5-a]pyridine-2-carboxamido)-3-azabicyclo[4.1.0]heptan-3-yl)picolinic acid], for which the DSF entry is “***** (>2.5° C.=*****)”.
With `Cc1cc(N2CC[C@](C)(c3ccccc3)C2)cn2nc(C(=O)N3CCC(O)(CNc4cccc(C(=O)O)n4)C3)nc12` (stereo partly shown) [Compound 686], the DSF entry was “***** (>2.5° C.=*****)”.
As for `Cc1cc(N2CC[C@](C)(c3ccccc3)C2)cn2nc(C(=O)N3CCC4(C3)CN(c3cccc(C(=O)O)n3)C(=O)O4)nc12` (stereo partly shown) [Compound 687], the DSF result is recorded as “***** (>2.5° C.=*****)”.
With `Cc1cc(N2CC[C@](C)(c3ccccc3)C2)cn2nc(C(=O)N3CCC4C3CC(=O)N4c3cccc(C(=O)O)n3)nc12` (stereo partly shown) [Compound 688], the DSF result is “***** (>2.5° C.=*****)”.
With `Cc1cc(N2CC[C@](C)(c3ccccc3)C2)cn2nc(C(=O)NC[C@@H]3CCCN3c3cccc(C(=O)O)n3)nc12` [Compound 689], the DSF entry is “***** (>2.5° C.=*****)”.
In the case of `Cc1cc(N2CC[C@](C)(c3ccccc3)C2)cn2nc(C(=O)NC3CC4(C3)CN(c3ccnc(C(=O)O)c3)C4)nc12` [Compound 691, (R)-4-(6-(8-methyl-6-(3-methyl-3-phenylpyrrolidin-1-yl)-[1,2,4]triazolo[1,5-a]pyridine-2-carboxamido)-2-azaspiro[3.3]heptan-2-yl)picolinic acid], the DSF result is “***** (>2.5° C.=*****)”.
Then `Cc1ccc(C(=O)O)nc1N1CCC2(CCN(C(=O)c3nc4c(C)cc(N5CC[C@](C)(c6ccccc6)C5)cn4n3)C2)C1` (stereo partly shown) [Compound 692], with “***** (>2.5° C.=*****)”.
As for `Cc1cc(N2CC[C@](C)(c3ccccc3)C2)cn2nc(C(=O)N[C@@H]3CCCN(c4cccc(C(=O)O)n4)C3)nc12` [Compound 693], the DSF entry was “***** (>2.5° C.=*****)”.
On to `Cc1cc(N2CC[C@](C)(c3ccccc3)C2)cn2nc(C(=O)N3CCCN(c4ccc(C(=O)O)cn4)CC3)nc12` [Compound 694], for which the DSF result was “***** (>2.5° C.=*****)”.
With `Cc1cc(N2CC[C@](C)(c3ccccc3)C2)cn2nc(C(=O)N3CC4CCC3C(=O)N4c3cccc(C(=O)O)n3)nc12` (stereo partly drawn) [Compound 695, 6-[5-[8-methyl-6-[(3R)-3-methyl-3-phenyl-pyrrolidin-1-yl]-[1,2,4]triazolo[1,5-a]pyridine-2-carbonyl]-3-oxo-2,5-diazabicyclo[2.2.2]octan-2-yl]pyridine-2-carboxylic acid], the DSF entry is “***** (>2.5° C.=*****)”.
On to `Cc1cc(N2CC[C@](C)(c3ccccc3)C2)cn2nc(C(=O)N3CC(CNc4cccc(C(=O)O)n4)C(C)(O)C3)nc12` (stereo partly drawn) [Compound 696, 6-(((4-hydroxy-4-methyl-1-(8-methyl-6-((R)-3-methyl-3-phenylpyrrolidin-1-yl)-[1,2,4]triazolo[1,5-a]pyridine-2-carbonyl)pyrrolidin-3-yl)methyl)amino)picolinic acid], for which the DSF result is on record as “***** (>2.5° C.=*****)”.
Then `Cc1cc(N2CC[C@](C)(c3ccccc3)C2)cn2nc(C(=O)NC3C4CC3N(c3cccc(C(=O)O)n3)C4)nc12` (stereo partly drawn) [Compound 697, 6-[5-[[8-methyl-6-[(3R)-3-methyl-3-phenyl-pyrrolidin-1-yl]-[1,2,4]triazolo[1,5-a]pyridine-2-carbonyl]amino]-2-azabicyclo[2.1.1]hexan-2-yl]pyridine-2-carboxylic acid], with “***** (>2.5° C.=*****)”.
As to `Cc1cc(N2CC[C@](C)(c3ccccc3)C2)cn2nc(C(=O)N[C@@H]3CN(c4cccc(C(=O)O)n4)CC34CC4)nc12` [Compound 698], the DSF result was “***** (>2.5° C.=*****)”.
Turning to `Cc1cc(N2CC[C@](C)(c3ccccc3)C2)cn2nc(C(=O)NC3CN(c4cccc(C(=O)O)n4)CC4(COC4)C3)nc12` (stereo partly drawn) [Compound 699, 6-[6-[[8-methyl-6-[(3R)-3-methyl-3-phenyl-pyrrolidin-1-yl]-[1,2,4]triazolo[1,5-a]pyridine-2-carbonyl]amino]-2-oxa-8-azaspiro[3.5]nonan-8-yl]pyridine-2-carboxylic acid], the DSF entry was “***** (>2.5° C.=*****)”.
Then `Cc1cc(N2CC[C@](C)(c3cccc(F)c3)C2)cn2nc(C(=O)NC3CCN(c4cccc(C(=O)O)n4)CC34COC4)nc12` (stereo partly shown) [Compound 700], with “***** (>2.5° C.=*****)”; and `Cc1cc(N2CC[C@@](C)(n3ccc(C(F)(F)F)n3)C2)cn2nc(C(=O)N[C@@H]3CCN(c4cccc(C(=O)O)n4)CC34COC4)nc12` [Compound 701], with “***** (>2.5° C.=*****)”; and `Cc1cc(N2CC[C@](C)(c3ccccc3)C2)cn2nc(C(=O)N3CCC(Nc4cccc(C(=O)O)n4)C4(COC4)C3)nc12` (stereo partly shown) [Compound 702], with “***** (>2.5° C.=*****)”.
On to `Cc1cc(N2CC[C@](C)(c3ccccc3)C2)cn2nc(C(=O)N3C[C@H](O)[C@@]4(CCN(c5cccc(C(=O)O)n5)C4)C3)nc12` [Compound 703, Mis6-[4-hydroxy-2-[8-methyl-6-[(3R)-3-methyl-3-phenyl-pyrrolidin-1-yl]-[1,2,4]triazolo[1,5-a]pyridine-2-carbonyl]-2,7-diazaspiro[4.4]nonan-7-yl]pyridine-2-carboxylic acid], for which the DSF result was “***** (>2.5° C.=*****)”.
Then `Cc1cc(N2CC[C@](C)(c3ccccc3)C2)cn2nc(C(=O)N3CC[C@H]4[C@@H]3CC(=O)N4c3cccc(C(=O)O)n3)nc12` [Compound 704, 6-((3aS,6aS)-4-(8-methyl-6-((R)-3-methyl-3-phenylpyrrolidin-1-yl)-[1,2,4]triazolo[1,5-a]pyridine-2-carbonyl)-2-oxohexahydropyrrolo[3,2-b]pyrrol-1(2H)-yl)picolinic acid], with “***** (>2.5° C.=*****)”; and `COC(C)(CC(=O)N1CC[C@@]2(CCN(C(=O)c3nc4c(C)cc(N5CC[C@](C)(c6ccccc6)C5)cn4n3)C2)C1)C(=O)O` (stereo partly drawn) [Compound 706, 2-methoxy-2-methyl-4-[(5R)-2-[8-methyl-6-[(3R)-3-methyl-3-phenyl-pyrrolidin-1-yl]-[1,2,4]triazolo[1,5-a]pyridine-2-carbonyl]-2,7-diazaspiro[4.4]nonan-7-yl]-4-oxo-butanoic acid], with “***** (>2.5° C.=*****)”.
Then `Cc1cc(N2CC[C@](C)(c3ccccc3)C2)cn2nc(C(=O)N3CC[C@@]4(CCN(C(=O)CC(C)(C)C(=O)O)C4)C3)nc12` [Compound 707, 2,2-dimethyl-4-[(5R)-2-[8-methyl-6-[(3R)-3-methyl-3-phenyl-pyrrolidin-1-yl]-[1,2,4]triazolo[1,5-a]pyridine-2-carbonyl]-2,7-diazaspiro[4.4]nonan-7-yl]-4-oxo-butanoic acid], with “***** (>2.5° C.=*****)”.
